One assay concerns the target T1, Trp-p8 (Homo sapiens, UniProt Q7Z2W7, T58I).
T1 construct: expressed in transfected cells; host or cells: CHO (Chinese Hamster Ovary) cells
Kind of assay: ATP viability assay with CHO/Trp-p8 cells at 37° C. It counts as cell-based. The note with it: Table 1, Formula I-A; CHO/Trp-p8 cells, 24-26 hours at 37° C., 50% reduction in relative cell viability; read-out: EC50. An excerpt:
Human Trp-p8 transfected CHO cells (referred to herein as CHO/Trp-p8) were generated for use in experiments of the present invention. Expression of Trp-p8 polypeptide in this transfectant and the absence of any endogenous expression in the non-transfected CHO was confirmed by western blot and immunofluorescence using a Trp-p8 specific antibody (GS2.20) as well as the calcium flux assay with Icilin (1-[2-hydroxyphenyl]-4-[3-nitrophenyl]-1,2,3,6-tetrahydropyrimidine-2-one) and menthol (2-isopropyl-5-methyl-cyclohexanol). Non-transfected CHO cells were used to establish the specificity of the effects of the compounds observed with CHO/Trp-p8.
This Example discloses an ATP viability assay suitable for screening for effective Trp-p8 agonists. The ATP viability assay described herein employs CHO cells expressing an exogenous Trp-p8 cDNA. This example further establishes that Trp-p8 agonists of the present invention are effective in decreasing the viability of Trp-p8 expressing cells.
The concentration of intracellular ATP declines very rapidly when metabolically active cells undergo necrosis and/or apoptosis. The ATP concentration and consequently the relative cell viability can be measured by established methods using commercially available reagents. In the agonist screening methodology disclosed herein, a compound that specifically decreases the viability of CHO/Trp-p8 cells is referred to as an agonist.
As a primary screen for efficacy and specificity for agonists, both the non-transfected CHO and CHO/Trp-p8 cells were exposed to 1 or 10 μM of test compounds in 1% dimethylsulfoxide (DMSO) or 1% DMSO (control) in a 96-well black walled, black-bottomed, cell-culture treated plate. DMSO was the solvent for all of the compounds tested. After 24-26 hours at 37° C., the cells were lysed and ATP concentration determined via a chemiluminescence assay using a commercially available reagent kit—Cell Titer-Glo (Promega; Madison, Wis.). […] (EC50 is defined herein as the agonist concentration at which there is a 50% reduction in relative cell viability).
T1 sequence (Q7Z2W7 whole entry T58I): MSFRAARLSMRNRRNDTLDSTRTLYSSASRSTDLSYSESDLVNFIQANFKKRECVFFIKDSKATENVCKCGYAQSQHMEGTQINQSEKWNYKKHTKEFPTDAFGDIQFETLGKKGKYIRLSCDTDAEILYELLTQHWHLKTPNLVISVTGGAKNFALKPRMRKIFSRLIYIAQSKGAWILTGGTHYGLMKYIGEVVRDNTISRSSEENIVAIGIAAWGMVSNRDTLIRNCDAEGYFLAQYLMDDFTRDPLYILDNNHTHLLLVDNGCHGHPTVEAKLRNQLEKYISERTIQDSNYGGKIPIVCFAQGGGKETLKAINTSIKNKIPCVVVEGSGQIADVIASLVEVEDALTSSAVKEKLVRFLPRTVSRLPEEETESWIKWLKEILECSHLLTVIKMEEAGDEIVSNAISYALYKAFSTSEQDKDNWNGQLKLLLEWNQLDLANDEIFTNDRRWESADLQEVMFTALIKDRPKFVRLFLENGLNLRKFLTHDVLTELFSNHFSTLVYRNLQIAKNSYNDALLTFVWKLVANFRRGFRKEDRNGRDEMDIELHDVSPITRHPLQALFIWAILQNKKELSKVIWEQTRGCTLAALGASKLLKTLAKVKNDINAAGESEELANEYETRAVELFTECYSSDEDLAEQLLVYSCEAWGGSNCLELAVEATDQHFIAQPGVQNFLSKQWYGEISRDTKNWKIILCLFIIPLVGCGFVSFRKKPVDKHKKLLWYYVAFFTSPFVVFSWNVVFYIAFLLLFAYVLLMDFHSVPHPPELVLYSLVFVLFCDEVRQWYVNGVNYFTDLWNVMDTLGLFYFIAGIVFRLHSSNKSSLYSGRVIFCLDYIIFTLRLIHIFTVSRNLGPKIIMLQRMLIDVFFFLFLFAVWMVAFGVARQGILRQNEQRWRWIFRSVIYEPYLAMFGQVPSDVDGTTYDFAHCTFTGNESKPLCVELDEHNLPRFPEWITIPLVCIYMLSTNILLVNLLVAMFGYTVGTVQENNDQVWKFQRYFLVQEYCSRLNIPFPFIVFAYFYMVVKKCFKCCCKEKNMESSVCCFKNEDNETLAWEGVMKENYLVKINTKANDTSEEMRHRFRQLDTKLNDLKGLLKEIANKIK
Consider `CC(C)[C@@H]1CC[C@@H](C)C[C@H]1C(=O)Nc1ccccc1C(=O)NCCN` [Compound 9], for which the EC50 is 21 to 50 nM. On the same count and under the same terms, the figure for `CC(C)[C@@H]1CC[C@@H](C)C[C@H]1C(=O)Nc1cc2ccccc2cc1NCCN` [Compound 8] is 21 to 50 nM.

For `COc1ccc(NC(=O)[C@@H]2C[C@H](C)CC[C@H]2C(C)C)c(NC(=O)[C@H](N)[C@H](C)O)c1` [Compound 12], the concentration for a half-maximal effect (EC50) is 51 to 100 nM.

With `CC[C@@H](N)C(=O)Nc1cc(OC)ccc1NC(=O)[C@@H]1C[C@H](C)CC[C@H]1C(C)C` [Compound 6], the half-maximal effective concentration (EC50) was 21 to 50 nM. Same read-out and setting: the figure for `CSc1ccc(NC(=O)[C@@H]2C[C@H](C)CC[C@H]2C(C)C)c(C(=O)NCCN)c1` [Compound 2] is less than 20 nM. Same read-out and setting: the figure for `CC(C)[C@@H]1CC[C@@H](C)C[C@H]1C(=O)Nc1ccc2ccccc2c1OCCN` [Compound 3] is less than 20 nM; for `COc1ccc(NC(=O)[C@@H]2C[C@H](C)CC[C@H]2C(C)C)c(NC(=O)[C@H](N)CO)c1` [Compound 7] it is 21 to 50 nM; for `COc1ccc(NC(=O)[C@@H]2C[C@H](C)CC[C@H]2C(C)C)c(NC(=O)CN)c1` [Compound 13] it is 51 to 100 nM.

The same assay, now with this note: Table 2, Formula I-B; CHO/Trp-p8 cells, 24-26 hours at 37° C., 50% reduction in relative cell viability; read-out: EC50.
With `CC(C)[C@@H]1CC[C@@H](C)C[C@H]1C(=O)Nc1cc(-c2cccn2C)nn1CCN` [Compound 17, 2-Isopropyl-5-methyl-cyclohexane carboxylic acid-[2-(2-amino-ethyl)-5-(1-methyl-1H-pyrrol-2-yl)-2H-pyrazol-3-yl]-amide], the EC50 was less than 20 nM. Turning to `CC(C)[C@@H]1CC[C@@H](C)C[C@H]1C(=O)Nc1cc(-c2cccc(C#N)c2)nn1CCN` [Compound 23], the half-maximal effective concentration (EC50) was in the range of 21 to 50 nM. On the same count and under the same terms, the figure for `COC(=O)c1ccc(-c2cc(NC(=O)[C@@H]3C[C@H](C)CC[C@H]3C(C)C)n(CCN)n2)cc1` [Compound 25] is 51 to 100 nM; for `CC(C)[C@@H]1CC[C@@H](C)C[C@H]1C(=O)Nc1cc(-c2ccco2)nn1CCN` [Compound 14, 2-Isopropyl-5-methyl-cyclohexane carboxylic acid-[2-(2-amino-ethyl)-5-furan-2-yl-2H-pyrazol-3-yl]-amide] it is less than 20 nM. The same measure, in the same setting: under `CC(C)[C@@H]1CC[C@@H](C)C[C@H]1C(=O)Nc1cc(-c2ccc(N)cc2)nn1CCN` [Compound 19] stands 21 to 50 nM; under `CC(C)[C@@H]1CC[C@@H](C)C[C@H]1C(=O)Nc1cc(-c2ccc(O)cc2)nn1CCN` [Compound 20], 21 to 50 nM; under `CC(C)[C@@H]1CC[C@@H](C)C[C@H]1C(=O)Nc1cc(-c2cccc(N)c2)nn1CCN` [Compound 26], 51 to 100 nM.

Staying with this assay, now noted: Table 3, Formula I-C; CHO/Trp-p8 cells, 24-26 hours at 37° C., 50% reduction in relative cell viability; read-out: EC50.
Turning to `CC(C)[C@@H]1CC[C@@H](C)C[C@H]1C(=O)NCC(OCCCN)c1ccccc1` (some centres unmarked) [Compound 31, 2-Isopropyl-5-methyl-cyclohexanecarboxylic[2-(3-amino-4-propoxy)-2-phenyl-ethyl]-amide], the EC50 lay in the range of 21 to 50 nM.

The same assay, now with this note: Table 5, Formula I-E; CHO/Trp-p8 cells, 24-26 hours at 37° C., 50% reduction in relative cell viability; read-out: EC50.
`CC(C)[C@@H]1CC[C@@H](C)C[C@H]1C(=O)n1c(=O)n(CCN)c2cc3ccccc3cc21` [Compound 51]: the concentration giving a half-maximal response (EC50) is less than 20 nM. Take `CCN(CC)CCNC(=O)c1ccc2c(c1)n(CCN)c(=O)n2C(=O)[C@@H]1C[C@H](C)CC[C@H]1C(C)C` [Compound 44, 3-(2-Amino-ethyl)-1-(2-isopropyl-5-methylcyclohexanecarbonyl)-2-oxo-2,3-dihydro-1H-benzoimidazole-5-carboxylic acid (2-diethylamino-ethyl)amide]: the concentration giving a half-maximal response (EC50) was less than 20 nM. Still for that read-out and setting: the figure for `CC(C)[C@@H]1CC[C@@H](C)C[C@H]1C(=O)n1c(=O)n(CCN)c2ccc(C(F)(F)F)cc21` [Compound 61] is 21 to 50 nM; for `CC(C)[C@@H]1CC[C@@H](C)C[C@H]1C(=O)n1c(=O)n(CCN)c2cc(OCC(=O)c3ccccc3)ccc21` [Compound 65] it is 21 to 50 nM; for `CC(C)[C@@H]1CC[C@@H](C)C[C@H]1C(=O)n1c(=O)n(CCN)c2cc(C(N)=O)ccc21` [Compound 41, 3-(2-Amino-ethyl)-1-(2-isopropyl-5-methyl-cyclohexanecarbonyl)-2-oxo-2,3-dihydro-1H-benzoimidazole-5-carboxylic acid amide] it is less than 20 nM. Consider `CC(C)[C@@H]1CC[C@@H](C)C[C@H]1C(=O)n1c(=O)n(CCCN)c2ccccc21` [Compound 58], for which the EC50 was in the range of 21 to 50 nM.

In the case of `CC(C)[C@@H]1CC[C@@H](C)C[C@H]1C(=O)n1c(=O)n(CCN)c2cc(C(=O)Nc3ccccc3)ccc21` [Compound 59], the EC50 was in the range of 21 to 50 nM. As for `C#CCOc1ccc2c(c1)n(CCN)c(=O)n2C(=O)[C@@H]1C[C@H](C)CC[C@H]1C(C)C` [Compound 46], the concentration giving a half-maximal response (EC50) is less than 20 nM. For the compound `CNCCn1c(=O)n(C(=O)[C@@H]2C[C@H](C)CC[C@H]2C(C)C)c2ccccc21` [Compound 66], the EC50 was in the range of 21 to 50 nM. The same measure, in the same setting: under `CC(C)[C@@H]1CC[C@@H](C)C[C@H]1C(=O)n1c(=O)n(CCN)c2cc(C(=O)N[C@@H](CO)[C@@H](O)c3ccccc3)ccc21` [Compound 72] stands 51 to 100 nM; under `CC(C)[C@@H]1CC[C@@H](C)C[C@H]1C(=O)n1c(=O)n(CCN)c2cc(C(=O)NCCO)ccc21` [Compound 52], less than 20 nM; under `CC(C)[C@@H]1CC[C@@H](C)C[C@H]1C(=O)n1c(=O)n(CCN)c2cc(OCc3ccccc3)ccc21` [Compound 75], 51 to 100 nM. Same read-out and setting: under `CC(C)[C@@H]1CC[C@@H](C)C[C@H]1C(=O)n1c(=O)n(CCN)c2cc(C(=O)N3CCOCC3)ccc21` [Compound 64] stands 21 to 50 nM; under `CSc1ccc2c(c1)n(CCN)c(=O)n2C(=O)[C@@H]1C[C@H](C)CC[C@H]1C(C)C` [Compound 42, 3-(2-Amino-ethyl)-1-(2-isopropyl-5-methyl-cyclohexanecarbonyl)-5-methylsulfanyl-1,3-dihydro-benzoimidazol-2-one], less than 20 nM. Same read-out and setting: the figure for `CC(C)[C@@H]1CC[C@@H](C)C[C@H]1C(=O)n1c(=O)n(CCN)c2cc(C(=O)N(C)c3ccccc3)ccc21` [Compound 68] is 51 to 100 nM; for `CC(C)[C@@H]1CC[C@@H](C)C[C@H]1C(=O)n1c(=O)n(CCN)c2cc(C(=O)NCc3ccccc3)ccc21` [Compound 63] it is 21 to 50 nM.

In the case of `CC(C)[C@@H]1CC[C@@H](C)C[C@H]1C(=O)n1c(=O)n(CCN)c2ccncc21` [Compound 62], the EC50 lay within 21 to 50 nM. Turning to `CC(C)[C@@H]1CC[C@@H](C)C[C@H]1C(=O)n1c(=O)n(CCCCN)c2ccccc21` [Compound 76], the concentration for a half-maximal effect (EC50) was 51 to 100 nM.

On to `CC(C)[C@@H]1CC[C@@H](C)C[C@H]1C(=O)n1c(=O)n(CCN)c2cc(C(=O)NC(CO)CO)ccc21` [Compound 74], for which the EC50 lay in the range of 51 to 100 nM. On the same count and under the same terms, the figure for `CC(C)[C@@H]1CC[C@@H](C)C[C@H]1C(=O)n1c(=O)n(CCN)c2cc([S+](C)[O-])ccc21` (some centres unmarked) [Compound 43, 3-(2-Amino-ethyl)-1-(2-isopropyl-5-methyl-cyclohexanecarbonyl)-5-methylsulfinyl-1,3-dihydro-benzoimidazol-2-one] is less than 20 nM; for `CCOc1ccc2c(c1)n(CCN)c(=O)n2C(=O)[C@@H]1C[C@H](C)CC[C@H]1C(C)C` (stereo in doubt) [Compound 38, 3-(2-Aminoethyl)-5-ethoxy-1-(2-isopropyl-5-methylcyclohexanecarbonyl)-1,3-dihydro-benzoimidazol-2-one] it is less than 20 nM; for `CCCCOc1ccc2c(c1)n(CCN)c(=O)n2C(=O)[C@@H]1C[C@H](C)CC[C@H]1C(C)C` [Compound 67] it is 51 to 100 nM.

The record behind these values is patent US7741355B2, “Small-molecule modulators of TRP-p8 activity” (Dendreon Corporation, priority 2006, dated 2010).
